From ChEMBL document CHEMBL4152339, “Design and synthesis of novel 1H-tetrazol-5-amine based potent antimicrobial agents: DNA topoisomerase IV and gyrase affinity evaluation supported by molecular docking studies” (Eur J Med Chem, 2018)
≈ marks a conversion by molar mass, not a printed value.

Legend:
[1] = system: Pseudomonas aeruginosa; assay: Antibacterial activity against Pseudomonas aeruginosa 18m after 18 hrs by CLSI disc diffusion method; type: functional
[2] = system: Staphylococcus aureus; assay: Antibacterial activity against Staphylococcus aureus 498 after 18 hrs by CLSI disc diffusion method; type: functional; details: Staphylococcus aureus, 498, 18 h
[3] = system: Staphylococcus epidermidis; assay: Antibacterial activity against Staphylococcus epidermidis 469 after 18 hrs by CLSI disc diffusion method; type: functional; details: Staphylococcus epidermidis, 469, 18 h
[4] = system: A549; assay: Cytotoxicity activity against human A549 cells assessed as reduction in cell viability after 72 hrs by MTT assay; type: cell-based; details: A549, 72 h
[5] = system: Pseudomonas aeruginosa; assay: Antibacterial activity against Pseudomonas aeruginosa 10m after 18 hrs by CLSI disc diffusion method; type: functional
[6] = system: Pseudomonas aeruginosa; assay: Antibacterial activity against Pseudomonas aeruginosa 12m after 18 hrs by CLSI disc diffusion method; type: functional
[7] = system: Staphylococcus epidermidis; assay: Antibacterial activity against Staphylococcus epidermidis ATCC 35984 after 18 hrs by CLSI […] method; type: functional; details: ATCC 35984, 18 h
[8] = system: Staphylococcus epidermidis; assay: Antibacterial activity against Staphylococcus epidermidis 432 after 18 hrs by CLSI disc diffusion method; type: functional; details: Staphylococcus epidermidis, 432, 18 h
[9] = system: Bordetella bronchiseptica; assay: Antibacterial activity against Bordetella bronchiseptica ATCC 4617 after 18 hrs by CLSI disc diffusion method; type: functional; details: ATCC 4617, 18 h
[10] = system: Escherichia coli; assay: Antibacterial activity against Escherichia coli ML 6 after 18 hrs by CLSI disc diffusion method; type: functional; details: ML 6, 18 h
[11] = Selectivity index, ratio of IC50 for human HaCaT cells to MIC for Staphylococcus aureus NCTC 4163; type: toxicity; details: read-out: Selectivity Index
[12] = Selectivity index, ratio of IC50 for human HaCaT cells to MIC for Proteus vulgaris NCTC 4635; type: toxicity; details: read-out: Selectivity Index
[13] = Selectivity index, ratio of IC50 for human HaCaT cells to MIC for Bordetella bronchiseptica ATCC 4617; type: toxicity; details: read-out: Selectivity Index
[14] = system: Pseudomonas aeruginosa; assay: Antibacterial activity against Pseudomonas aeruginosa 7m after 18 hrs by CLSI disc diffusion method; type: functional
[15] = system: Bacillus spizizenii; assay: Antibacterial activity against Bacillus subtilis ATCC 6633 after 18 hrs by CLSI disc diffusion method; type: functional; details: ATCC 6633, 18 h
[16] = system: Escherichia coli; assay: Antibacterial activity against Escherichia coli ML 9 after 18 hrs by CLSI disc diffusion method; type: functional; details: ML 9, 18 h
[17] = system: Micrococcus luteus; assay: Antibacterial activity against Micrococcus luteus ATCC 9341 after 18 hrs by CLSI disc diffusion method; type: functional; details: ATCC 9341, 18 h
[18] = system: Escherichia coli; assay: Antibacterial activity against Escherichia coli ML 17 after 18 hrs by CLSI disc diffusion method; type: functional; details: ML 17, 18 h
[19] = system: Pseudomonas aeruginosa; assay: Antibacterial activity against Pseudomonas aeruginosa 6m after 18 hrs by CLSI disc diffusion method; type: functional
[20] = Selectivity index, ratio of IC50 for human HaCaT cells to MIC for Micrococcus luteus ATCC 10240; type: toxicity; details: read-out: Selectivity Index
[21] = system: Pseudomonas aeruginosa; assay: Antibacterial activity against Pseudomonas aeruginosa ATCC 27853 after 18 hrs by CLSI disc diffusion method; type: functional; details: ATCC 27853, 18 h
[22] = system: Staphylococcus aureus; assay: Antibacterial activity against Staphylococcus aureus ATCC 25923 after 18 hrs by CLSI disc diffusion method; type: functional; details: ATCC 25923, 18 h
[23] = system: Staphylococcus aureus; assay: Antibacterial activity against Staphylococcus aureus 497 after 18 hrs by CLSI disc diffusion method; type: functional; details: Staphylococcus aureus, 497, 18 h
[24] = system: Proteus vulgaris; assay: Antibacterial activity against Proteus vulgaris NCTC 4635 after 18 hrs by CLSI disc diffusion method; type: functional; details: NCTC 4635, 18 h
[25] = system: Escherichia coli; assay: Antibacterial activity against Escherichia coli ML 15 after 18 hrs by CLSI disc diffusion method; type: functional; details: ML 15, 18 h
[26] = system: Staphylococcus aureus; assay: Antibacterial activity against Staphylococcus aureus 496 after 18 hrs by CLSI disc diffusion method; type: functional; details: Staphylococcus aureus, 496, 18 h
[27] = Selectivity index, ratio of IC50 for human HaCaT cells to MIC for Escherichia coli ATCC 10538; type: toxicity; details: read-out: Selectivity Index
[28] = Selectivity index, ratio of IC50 for human HaCaT cells to MIC for Bacillus subtilis ATCC 6633; type: toxicity; details: read-out: Selectivity Index
[29] = Selectivity index, ratio of IC50 for human HaCaT cells to MIC for Enterococcus hirae ATCC 10541; type: toxicity; details: read-out: Selectivity Index
[30] = system: Staphylococcus aureus; assay: Antibacterial activity against Staphylococcus aureus 585 after 18 hrs by CLSI disc diffusion method; type: functional; details: Staphylococcus aureus, 585, 18 h
[31] = system: Escherichia coli; assay: Antibacterial activity against Escherichia coli ML 5 after 18 hrs by CLSI disc diffusion method; type: functional; details: ML 5, 18 h
[32] = system: Escherichia coli; assay: Antibacterial activity against Escherichia coli ML 12 after 18 hrs by CLSI disc diffusion method; type: functional; details: ML 12, 18 h
[33] = system: Bacillus cereus; assay: Antibacterial activity against Bacillus cereus ATCC 11778 after 18 hrs by CLSI disc diffusion method; type: functional; details: ATCC 11778, 18 h
[34] = system: Staphylococcus aureus; assay: Antibacterial activity against Staphylococcus aureus NCTC 4163 after 18 hrs by CLSI disc diffusion method; type: functional; details: NCTC 4163, 18 h
[35] = system: Staphylococcus epidermidis; assay: Antibacterial activity against Staphylococcus epidermidis 423 after 18 hrs by CLSI disc diffusion method; type: functional; details: Staphylococcus epidermidis, 423, 18 h
[36] = system: Staphylococcus epidermidis; assay: Antibacterial activity against Staphylococcus epidermidis 471 after 18 hrs by CLSI disc diffusion method; type: functional; details: Staphylococcus epidermidis, 471, 18 h
[37] = system: Staphylococcus epidermidis; assay: Antibacterial activity against Staphylococcus epidermidis 511 after 18 hrs by CLSI disc diffusion method; type: functional; details: Staphylococcus epidermidis, 511, 18 h
[38] = system: Staphylococcus epidermidis; assay: Antibacterial activity against Staphylococcus epidermidis 433 after 18 hrs by CLSI disc diffusion method; type: functional; details: Staphylococcus epidermidis, 433, 18 h
[39] = system: HaCaT; assay: Cytotoxicity activity against human HaCaT cells assessed as reduction in cell viability after 72 hrs by MTT assay; type: cell-based
[40] = system: Pseudomonas aeruginosa; assay: Antibacterial activity against Pseudomonas aeruginosa 16m after 18 hrs by CLSI disc diffusion method; type: functional
[41] = system: Staphylococcus epidermidis; assay: Antibacterial activity against Staphylococcus epidermidis 510 after 18 hrs by CLSI disc diffusion method; type: functional; details: Staphylococcus epidermidis, 510, 18 h
[42] = system: Staphylococcus epidermidis; assay: Antibacterial activity against Staphylococcus epidermidis ATCC 12228 after 18 hrs by CLSI disc diffusion method; type: functional; details: ATCC 12228, 18 h
[43] = system: Escherichia coli; assay: Antibacterial activity against Escherichia coli ML 16 after 18 hrs by CLSI disc diffusion method; type: functional; details: ML 16, 18 h
[44] = system: Staphylococcus aureus; assay: Antibacterial activity against Staphylococcus aureus 572 after 18 hrs by CLSI disc diffusion method; type: functional; details: Staphylococcus aureus, 572, 18 h
[45] = system: Pseudomonas aeruginosa; assay: Antibacterial activity against Pseudomonas aeruginosa 11m after 18 hrs by CLSI disc diffusion method; type: functional
[46] = system: Staphylococcus aureus; assay: Antibacterial activity against Staphylococcus aureus 537 after 18 hrs by CLSI disc diffusion method; type: functional; details: Staphylococcus aureus, 537, 18 h
[47] = system: Pseudomonas aeruginosa; assay: Antibacterial activity against Pseudomonas aeruginosa 31m after 18 hrs by CLSI disc diffusion method; type: functional
[48] = system: Staphylococcus aureus; assay: Antibacterial activity against Staphylococcus aureus 586 after 18 hrs by CLSI disc diffusion method; type: functional; details: Staphylococcus aureus, 586, 18 h
[49] = system: Micrococcus luteus; assay: Antibacterial activity against Micrococcus luteus ATCC 10240 after 18 hrs by CLSI disc diffusion method; type: functional; details: ATCC 10240, 18 h
[50] = system: Enterococcus hirae; assay: Antibacterial activity against Enterococcus hirae ATCC 10541 after 18 hrs by CLSI disc diffusion method; type: functional; details: ATCC 10541, 18 h
[51] = system: Pseudomonas aeruginosa; assay: Antibacterial activity against Pseudomonas aeruginosa ATCC 15442 after 18 hrs by CLSI disc diffusion method; type: functional; details: ATCC 15442, 18 h
[52] = system: Staphylococcus aureus; assay: Antibacterial activity against Staphylococcus aureus 495 after 18 hrs by CLSI disc diffusion method; type: functional; details: Staphylococcus aureus, 495, 18 h
[53] = system: Escherichia coli; assay: Antibacterial activity against Escherichia coli ATCC 10538 after 18 hrs by CLSI disc diffusion method; type: functional; details: ATCC 10538, 18 h
[54] = Inhibition of Staphylococcus aureus DNA topoisomerase 4 using Kinetoplast DNA as substrate after 30 mins by ethidium bromide staining based agarose gel electrophoresis method
[55] = biological target: DNA gyrase (Staphylococcus aureus, UniProt P0A0K8+P20831); assay: Inhibition of Staphylococcus aureus DNA gyrase supercoiling activity using pBR322 DNA as substrate after 30 mins by ethidium bromide staining based agarose gel electrophoresis method; type: protein-complex assay
Sequence of DNA gyrase (P0A0K8 whole entry, the tested form may be a part): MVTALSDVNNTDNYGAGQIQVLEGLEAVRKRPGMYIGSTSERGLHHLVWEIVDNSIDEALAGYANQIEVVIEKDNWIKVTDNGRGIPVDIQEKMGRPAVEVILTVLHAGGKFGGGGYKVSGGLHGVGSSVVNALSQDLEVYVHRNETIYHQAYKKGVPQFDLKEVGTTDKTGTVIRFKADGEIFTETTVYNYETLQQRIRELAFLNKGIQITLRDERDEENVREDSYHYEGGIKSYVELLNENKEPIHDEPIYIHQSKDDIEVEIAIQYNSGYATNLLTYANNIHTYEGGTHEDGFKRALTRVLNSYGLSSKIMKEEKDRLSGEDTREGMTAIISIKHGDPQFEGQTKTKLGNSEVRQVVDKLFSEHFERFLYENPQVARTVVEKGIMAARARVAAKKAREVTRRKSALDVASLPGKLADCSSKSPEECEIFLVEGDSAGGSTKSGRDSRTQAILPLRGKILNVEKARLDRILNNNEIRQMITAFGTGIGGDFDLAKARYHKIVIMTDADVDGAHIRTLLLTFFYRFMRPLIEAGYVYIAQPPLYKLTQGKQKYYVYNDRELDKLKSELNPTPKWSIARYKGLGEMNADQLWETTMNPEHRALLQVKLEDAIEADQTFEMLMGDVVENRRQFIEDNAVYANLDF
Sequence of DNA gyrase (P20831 whole entry, the tested form may be a part): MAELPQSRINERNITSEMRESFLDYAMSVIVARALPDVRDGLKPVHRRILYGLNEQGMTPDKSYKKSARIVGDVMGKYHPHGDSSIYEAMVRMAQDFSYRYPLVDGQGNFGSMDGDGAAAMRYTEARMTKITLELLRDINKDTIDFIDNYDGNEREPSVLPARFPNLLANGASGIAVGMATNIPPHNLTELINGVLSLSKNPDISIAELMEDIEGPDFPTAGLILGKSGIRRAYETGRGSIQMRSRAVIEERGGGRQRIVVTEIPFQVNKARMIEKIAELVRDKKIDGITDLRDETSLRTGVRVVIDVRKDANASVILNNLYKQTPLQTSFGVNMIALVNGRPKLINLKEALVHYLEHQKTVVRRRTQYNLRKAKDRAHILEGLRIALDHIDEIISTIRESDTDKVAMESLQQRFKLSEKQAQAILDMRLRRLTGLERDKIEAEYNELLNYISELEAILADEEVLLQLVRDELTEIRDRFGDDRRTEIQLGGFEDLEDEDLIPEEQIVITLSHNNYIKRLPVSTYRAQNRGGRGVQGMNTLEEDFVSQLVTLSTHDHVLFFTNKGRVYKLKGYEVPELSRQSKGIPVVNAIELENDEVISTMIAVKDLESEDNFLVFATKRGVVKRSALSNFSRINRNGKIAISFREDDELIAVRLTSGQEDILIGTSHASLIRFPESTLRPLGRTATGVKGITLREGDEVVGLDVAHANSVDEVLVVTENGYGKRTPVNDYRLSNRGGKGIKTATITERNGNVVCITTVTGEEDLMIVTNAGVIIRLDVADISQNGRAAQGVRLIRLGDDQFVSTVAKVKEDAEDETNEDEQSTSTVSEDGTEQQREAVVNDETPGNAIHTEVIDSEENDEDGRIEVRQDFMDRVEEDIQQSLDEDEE

[56] = system: Escherichia coli; assay: Antibacterial activity against Escherichia coli ML 8 after 18 hrs by CLSI disc diffusion method; type: functional; details: ML 8, 18 h
[57] = system: Enterococcus faecalis; assay: Antibacterial activity against Enterococcus faecalis ATCC 29212 after 18 hrs by CLSI disc diffusion method; type: functional; details: ATCC 29212, 18 h
[58] = system: Staphylococcus aureus; assay: Antibacterial activity against Staphylococcus aureus ATCC 6538 after 18 hrs by CLSI disc diffusion method; type: functional; details: ATCC 6538, 18 h
[59] = system: Staphylococcus epidermidis; assay: Antibacterial activity against Staphylococcus epidermidis 431 after 18 hrs by CLSI disc diffusion method; type: functional; details: Staphylococcus epidermidis, 431, 18 h

Fc1ccc(-n2nnnc2NCc2ccco2)cc1Cl
MIC [1]: 14 µM (≈ 4.11 µg/mL)
MIC [2]: 7 µM (≈ 2.06 µg/mL)
MIC [3]: 7 µM (≈ 2.06 µg/mL)
IC50 [4]: 80 µM
MIC [5]: 27 µM (≈ 7.93 µg/mL)
MIC [6]: 7 µM (≈ 2.06 µg/mL)
MIC [7]: 3 µM (≈ 0.881 µg/mL)
MIC [8]: 7 µM (≈ 2.06 µg/mL)
MIC [9]: 7 µM (≈ 2.06 µg/mL)
MIC [10]: 54 µM (≈ 15.9 µg/mL)
selectivity ratio [11]: 12
selectivity ratio [12]: 84
selectivity ratio [13]: 12
MIC [14]: 7 µM (≈ 2.06 µg/mL)
MIC [15]: 3 µM (≈ 0.881 µg/mL)
MIC [16]: 14 µM (≈ 4.11 µg/mL)
MIC [17]: 1 µM (≈ 0.294 µg/mL)
MIC [18]: 7 µM (≈ 2.06 µg/mL)
MIC [19]: 7 µM (≈ 2.06 µg/mL)
selectivity ratio [20]: 84
MIC [21]: 7 µM (≈ 2.06 µg/mL)
MIC [22]: 7 µM (≈ 2.06 µg/mL)
MIC [23]: 14 µM (≈ 4.11 µg/mL)
MIC [24]: 1 µM (≈ 0.294 µg/mL)
MIC [25]: 54 µM (≈ 15.9 µg/mL)
MIC [26]: 7 µM (≈ 2.06 µg/mL)
selectivity ratio [27]: 12
selectivity ratio [28]: 28
selectivity ratio [29]: 6
MIC [30]: 14 µM (≈ 4.11 µg/mL)
MIC [31]: 7 µM (≈ 2.06 µg/mL)
MIC [32]: 54 µM (≈ 15.9 µg/mL)
MIC [33]: 3 µM (≈ 0.881 µg/mL)
MIC [34]: 7 µM (≈ 2.06 µg/mL)
MIC [35]: 14 µM (≈ 4.11 µg/mL)
MIC [36]: 7 µM (≈ 2.06 µg/mL)
MIC [37]: 14 µM (≈ 4.11 µg/mL)
MIC [38]: 14 µM (≈ 4.11 µg/mL)
IC50 [39]: 84 µM
MIC [40]: 14 µM (≈ 4.11 µg/mL)
MIC [41]: 14 µM (≈ 4.11 µg/mL)
MIC [42]: 7 µM (≈ 2.06 µg/mL)
MIC [43]: 7 µM (≈ 2.06 µg/mL)
MIC [44]: 14 µM (≈ 4.11 µg/mL)
MIC [45]: 27 µM (≈ 7.93 µg/mL)
MIC [46]: 7 µM (≈ 2.06 µg/mL)
MIC [47]: 7 µM (≈ 2.06 µg/mL)
MIC [48]: 14 µM (≈ 4.11 µg/mL)
MIC [49]: 1 µM (≈ 0.294 µg/mL)
MIC [50]: 14 µM (≈ 4.11 µg/mL)
MIC [51]: 218 µM (≈ 64 µg/mL)
MIC [52]: 7 µM (≈ 2.06 µg/mL)
MIC [53]: 7 µM (≈ 2.06 µg/mL)
IC50 [54]: 2.6 µg/mL (≈ 8.85 µM)
IC50 [55]: 3.06 µM
MIC [56]: 7 µM (≈ 2.06 µg/mL)
MIC [57]: 7 µM (≈ 2.06 µg/mL)
MIC [58]: 7 µM (≈ 2.06 µg/mL)
MIC [59]: 7 µM (≈ 2.06 µg/mL)
